Source: paper PMC11219871, “Epigenetic-based differentiation therapy for Acute Myeloid Leukemia” (Nature Communications, 2024)
Values joined by “and” are separate entries in the source; they are usually repeats but may differ in a detail not shown here. Equal values may be shown once.

Experiments:
Rag2-/-γc-/- mice = test: Toxicity assay: hematological and liver parameters, liver histology; assay type: in vivo, mouse; settings: for ALT (Counts (U/L)) / AST (Counts (U/L)) / Bilirubin (Counts (mg/dl)) / HDL (Counts (mmol/l)) / LCLC3 (Counts (mmol/l)) / UREA (Counts (mg/dl)) / Hematocrit (Counts (%)) / Hemoglobin (Counts (g/dl)) / PLT (Counts (K/O)) / RBC (Counts (K/O)) / WBC (Counts (K/O)): healthy Rag2-/-γc-/- mice, individual mice, 10 mg/kg; for ALT (Counts (U/L)) / AST (Counts (U/L)) / Bilirubin (Counts (mg/dl)) / HDL (Counts (mmol/l)) / LCLC3 (Counts (mmol/l)) / UREA (Counts (mg/dl)): 10 mg/kg i.p. daily for 3 weeks then 7-day washout; for Hematocrit (Counts (%)) / Hemoglobin (Counts (g/dl)) / PLT (Counts (K/O)) / RBC (Counts (K/O)) / WBC (Counts (K/O)): 10 mg/kg i.p. daily for 3 weeks
Method: After treating Rag2^−/−γc^−/− mice with i.p. […] Hematological and liver parameters were measured.
Hematological parameters, including white blood cells, red blood cells, platelet count, hemoglobin and hematocrit, were measured on a Hemavet Hematology Analyzer (Drew Scientific). Liver enzymes (albumin, alkaline phosphatase, aspartate transaminase, alanine transaminase), cholesterol, bilirubin, urea and bile acid levels were analyzed from mice serum using a C311 Cobas Analyzer (Roche Diagnostics).
Mice livers were fixed in paraformaldehyde at 4% for 6–8 h, washed twice with saline solution and stored in 70% ethanol. Samples were included in paraffin, and 3-µm serial sections were cut, deparaffinated, and stained with hematoxylin–eosin.

[1] = tested on: H3Ac and H3K27me3 levels in HL-60, ML-2, MV4-11 and MOLM-13 cell lines; test: Western blot of histone marks; assay type: cell-based, human; settings: HL-60, 270 nM CM-444 or 300 nM CM-1758, 48 h
Method: Histone extraction was performed with a Histone extraction Kit (Abcam, Cambridge, UK) following the manufacturer’s instructions. The histone concentration in the extract was measured using the dye-binding assay of Bradford. A 10 µg amount of histone was separated on 15% sodium dodecyl sulfate-polyacrylamide gel electrophoresis and transferred to a nitrocellulose membrane. The membrane, after being blocked with Tropix I-block blocking reagent (Cat No AI300, Tropix) in PBS with 0.1% Tween 20 and 0.02 NaN3 was incubated with the primary antibody against Acetyl H3 (rabbit polyclonal antibody, Cat No 06-599, Millipore) diluted 1:50,000 o/n at 4 °C or against H3K27 me3 (mouse monoclonal antibody to histone H3 trimethyl K27, Cat No ab6002, Abcam) diluted 1:2000 in bovine serum albumin o/n at 4 °C and then with alkaline phosphatase-conjugated secondary antibodies. […] Total H3 was used as a loading control (diluted 1:50,000 o/n at 4 °C or for 1 h at room temperature) (Anti-Histone H3, CT, pan, rabbit polyclonal, Cat No 07-690, Millipore). Images have been cropped for presentation.

EZH2 (Y641H) = biological target: T1, EZH2 (Y641H) (Homo sapiens, UniProt Q15910, Y641H); test: Epigenetic panel (BPS Bioscience); assay type: biochemical
T1 construct: purchased BPS Bioscience; Eurofins (HDAC4, 5, 7-11)
Description: (§1) The selectivity of CM-444 and CM-1758 against other epigenetic targets, including histone demethylase (JMJD2A, JMJD2B, JMJD2C, JMJD2D, JMJD2E, JMJD3, JMJD1A, LSD1, Jarid1A, Jarid1B, Jarid1C, FBXL10, FBXL11, JHDM1D, JMJD1B, PHF8, LSD2 and UTX); histone acetyltransferases (GCN5, P300); histone methyltransferases (G9a, GLP, MLL1, SET7/9, SUV39H1, SUV39H2, PRMT1, PRMT3, PRMT4, PRMT5, PRMT6, PRMT8, PRMT9, NSD1, NSD2, EZH1, EZH2, SETDB1, SETD2, SET8, SUV4-20H1, SMYD2, SMYD3, DOT1L, EZH2 (A677G), EZH2 (A677G), EZH2 (A738T), EZH2 (Y641S), EZH2 (P132S), EZH2 (Y641C), EZH2 (Y641F), EZH2 (Y641H), EZH2 (Y641N)); bromodomains (ATAD2B, ATAD2A, BRD1, BRD9, BPTF/FALZ, CeCR2, BRPF3, BRD3 (BD1 + BD2), BAZ2B, WDR9, TAF1 (BD2), TAF1L (BD2), TAF1L (BD1 + BD2), BRD2 (BD1), BRD2 (BD2), BRD2 (BD1 + BD2), BRD3 (BD1), BRD3 (BD2), BRD4 (BD1), BRD4 (BD2), BRD4 (BD1 + BD2), BRDT (BD1), BRDT (BD1 + BD2), CREBBP, SMARCA2A, SMARCA4/BRG1); DNA methyltranferases (DNMT1, DNMT3A/3L and DNMT3B/3L), and sirtuin histone deacetylases (SIRT1, SIRT2, SIRT3, SIRT5 and SIRT6), were determined by BPS Bioscience (http://www.bpsbioscience.com/index.ph). Binding experiments were performed in duplicate at a concentration of 10 μM.

PHF8 = biological target: T2, PHF8 (Homo sapiens, UniProt Q9UPP1); test: Epigenetic panel (BPS Bioscience); assay type: biochemical
T2 construct: purchased BPS Bioscience; Eurofins (HDAC4, 5, 7-11)
T2 sequence (Q9UPP1 whole entry): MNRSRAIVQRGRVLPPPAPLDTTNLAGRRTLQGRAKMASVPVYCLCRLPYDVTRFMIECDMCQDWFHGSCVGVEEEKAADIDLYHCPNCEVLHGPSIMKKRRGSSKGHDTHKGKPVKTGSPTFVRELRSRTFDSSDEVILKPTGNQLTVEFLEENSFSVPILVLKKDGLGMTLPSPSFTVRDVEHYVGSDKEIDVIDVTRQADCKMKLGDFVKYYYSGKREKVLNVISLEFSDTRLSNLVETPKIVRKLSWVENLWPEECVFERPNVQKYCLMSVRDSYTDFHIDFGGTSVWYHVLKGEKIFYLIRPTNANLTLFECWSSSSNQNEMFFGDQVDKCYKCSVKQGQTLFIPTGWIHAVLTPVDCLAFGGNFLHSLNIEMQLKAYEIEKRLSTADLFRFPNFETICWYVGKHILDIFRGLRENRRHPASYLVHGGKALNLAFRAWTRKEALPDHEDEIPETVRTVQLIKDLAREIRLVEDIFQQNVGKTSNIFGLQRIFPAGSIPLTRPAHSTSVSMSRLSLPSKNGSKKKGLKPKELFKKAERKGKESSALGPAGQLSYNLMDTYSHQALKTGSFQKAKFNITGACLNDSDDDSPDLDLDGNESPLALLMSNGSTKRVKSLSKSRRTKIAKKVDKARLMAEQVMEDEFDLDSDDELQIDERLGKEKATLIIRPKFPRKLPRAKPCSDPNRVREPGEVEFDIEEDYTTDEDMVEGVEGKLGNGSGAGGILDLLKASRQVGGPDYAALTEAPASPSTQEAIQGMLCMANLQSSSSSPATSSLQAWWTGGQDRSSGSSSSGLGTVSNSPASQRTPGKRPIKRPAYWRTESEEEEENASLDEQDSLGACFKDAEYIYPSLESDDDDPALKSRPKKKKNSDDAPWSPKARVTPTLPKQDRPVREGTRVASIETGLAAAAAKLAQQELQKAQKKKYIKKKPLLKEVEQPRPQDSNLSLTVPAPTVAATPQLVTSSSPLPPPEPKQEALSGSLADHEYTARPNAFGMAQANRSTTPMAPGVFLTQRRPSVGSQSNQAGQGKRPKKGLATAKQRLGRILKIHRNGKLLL
Description: as §1

PRMT1 = biological target: T3, PRMT1 (Homo sapiens, UniProt Q99873); test: Epigenetic panel (BPS Bioscience); assay type: biochemical
T3 construct: purchased BPS Bioscience; Eurofins (HDAC4, 5, 7-11)
T3 sequence (Q99873 whole entry): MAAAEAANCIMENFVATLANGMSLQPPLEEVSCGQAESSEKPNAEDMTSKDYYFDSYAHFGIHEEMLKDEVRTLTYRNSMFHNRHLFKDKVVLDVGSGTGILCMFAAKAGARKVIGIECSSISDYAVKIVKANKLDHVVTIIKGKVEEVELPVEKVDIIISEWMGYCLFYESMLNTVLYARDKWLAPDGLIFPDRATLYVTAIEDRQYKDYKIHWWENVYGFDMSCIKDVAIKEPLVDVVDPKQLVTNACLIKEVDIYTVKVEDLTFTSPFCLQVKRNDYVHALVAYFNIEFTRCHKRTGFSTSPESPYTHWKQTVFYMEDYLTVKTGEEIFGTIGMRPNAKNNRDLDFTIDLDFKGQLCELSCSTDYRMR
Description: as §1

EZH2 (Y641N) = biological target: T4, EZH2 (Y641N) (Homo sapiens, UniProt Q15910, Y641N); test: Epigenetic panel (BPS Bioscience); assay type: biochemical
T4 construct: purchased BPS Bioscience; Eurofins (HDAC4, 5, 7-11)
Description: as §1

NSD1 = biological target: T5, NSD1 (Homo sapiens, UniProt Q96L73); test: Epigenetic panel (BPS Bioscience); assay type: biochemical
T5 construct: purchased BPS Bioscience; Eurofins (HDAC4, 5, 7-11)
Description: as §1

EZH2 (P132S) = biological target: T6, EZH2 (P132S) (Homo sapiens, UniProt Q15910, P132S); test: Epigenetic panel (BPS Bioscience); assay type: biochemical
T6 construct: purchased BPS Bioscience; Eurofins (HDAC4, 5, 7-11)
Description: as §1

JMJD2B = biological target: T7, JMJD2B (Homo sapiens, UniProt O94953); test: Epigenetic panel (BPS Bioscience); assay type: biochemical
T7 construct: purchased BPS Bioscience; Eurofins (HDAC4, 5, 7-11)
T7 sequence (O94953 whole entry): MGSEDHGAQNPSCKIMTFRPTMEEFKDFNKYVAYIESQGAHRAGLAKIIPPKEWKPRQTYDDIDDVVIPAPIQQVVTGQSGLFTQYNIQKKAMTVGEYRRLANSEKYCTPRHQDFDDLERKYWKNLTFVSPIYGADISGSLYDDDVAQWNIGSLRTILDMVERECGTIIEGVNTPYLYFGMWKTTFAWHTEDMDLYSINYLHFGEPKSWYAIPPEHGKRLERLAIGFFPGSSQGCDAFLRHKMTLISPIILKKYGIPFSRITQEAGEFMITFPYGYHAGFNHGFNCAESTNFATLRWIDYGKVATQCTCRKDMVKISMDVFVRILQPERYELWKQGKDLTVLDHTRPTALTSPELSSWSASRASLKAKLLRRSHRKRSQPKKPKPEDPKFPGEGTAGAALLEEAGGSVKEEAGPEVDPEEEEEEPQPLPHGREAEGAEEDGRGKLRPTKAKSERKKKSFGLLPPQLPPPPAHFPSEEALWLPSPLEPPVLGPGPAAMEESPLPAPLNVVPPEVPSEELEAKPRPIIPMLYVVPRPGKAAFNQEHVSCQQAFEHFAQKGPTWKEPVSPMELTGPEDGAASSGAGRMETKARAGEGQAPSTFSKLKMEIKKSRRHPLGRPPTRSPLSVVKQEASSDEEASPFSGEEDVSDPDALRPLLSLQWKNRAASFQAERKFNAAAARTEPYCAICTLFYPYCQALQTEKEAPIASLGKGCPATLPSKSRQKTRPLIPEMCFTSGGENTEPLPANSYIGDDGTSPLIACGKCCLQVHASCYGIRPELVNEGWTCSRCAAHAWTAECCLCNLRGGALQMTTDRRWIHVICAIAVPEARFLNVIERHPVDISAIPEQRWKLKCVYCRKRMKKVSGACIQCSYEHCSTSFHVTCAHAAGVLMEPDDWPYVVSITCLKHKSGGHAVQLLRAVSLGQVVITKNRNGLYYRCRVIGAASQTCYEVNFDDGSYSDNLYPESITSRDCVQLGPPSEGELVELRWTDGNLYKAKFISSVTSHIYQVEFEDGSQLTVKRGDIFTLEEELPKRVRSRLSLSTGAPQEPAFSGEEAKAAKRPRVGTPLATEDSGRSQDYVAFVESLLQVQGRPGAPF
Description: as §1

LSD1 = biological target: T8, LSD1 (Homo sapiens, UniProt O60341); test: Epigenetic panel (BPS Bioscience); assay type: biochemical
T8 construct: purchased BPS Bioscience; Eurofins (HDAC4, 5, 7-11)
Description: as §1

PRMT8 = biological target: T9, PRMT8 (Homo sapiens, UniProt Q9NR22); test: Epigenetic panel (BPS Bioscience); assay type: biochemical
T9 construct: purchased BPS Bioscience; Eurofins (HDAC4, 5, 7-11)
T9 sequence (Q9NR22 whole entry): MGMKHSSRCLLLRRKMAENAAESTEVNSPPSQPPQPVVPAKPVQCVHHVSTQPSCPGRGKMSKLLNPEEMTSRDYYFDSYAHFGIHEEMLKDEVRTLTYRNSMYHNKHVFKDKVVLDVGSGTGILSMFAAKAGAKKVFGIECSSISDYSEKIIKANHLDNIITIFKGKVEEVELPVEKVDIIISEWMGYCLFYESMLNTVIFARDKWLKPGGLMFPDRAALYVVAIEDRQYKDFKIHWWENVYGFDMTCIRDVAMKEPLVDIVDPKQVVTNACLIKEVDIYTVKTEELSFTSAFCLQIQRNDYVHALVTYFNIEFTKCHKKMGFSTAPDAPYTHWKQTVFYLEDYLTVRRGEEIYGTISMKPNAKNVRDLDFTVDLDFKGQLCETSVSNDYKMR
Description: as §1

GLP = biological target: T10, GLP (Homo sapiens, UniProt Q9H9B1); test: Epigenetic panel (BPS Bioscience); assay type: biochemical
T10 construct: purchased BPS Bioscience; Eurofins (HDAC4, 5, 7-11)
T10 sequence (Q9H9B1 whole entry): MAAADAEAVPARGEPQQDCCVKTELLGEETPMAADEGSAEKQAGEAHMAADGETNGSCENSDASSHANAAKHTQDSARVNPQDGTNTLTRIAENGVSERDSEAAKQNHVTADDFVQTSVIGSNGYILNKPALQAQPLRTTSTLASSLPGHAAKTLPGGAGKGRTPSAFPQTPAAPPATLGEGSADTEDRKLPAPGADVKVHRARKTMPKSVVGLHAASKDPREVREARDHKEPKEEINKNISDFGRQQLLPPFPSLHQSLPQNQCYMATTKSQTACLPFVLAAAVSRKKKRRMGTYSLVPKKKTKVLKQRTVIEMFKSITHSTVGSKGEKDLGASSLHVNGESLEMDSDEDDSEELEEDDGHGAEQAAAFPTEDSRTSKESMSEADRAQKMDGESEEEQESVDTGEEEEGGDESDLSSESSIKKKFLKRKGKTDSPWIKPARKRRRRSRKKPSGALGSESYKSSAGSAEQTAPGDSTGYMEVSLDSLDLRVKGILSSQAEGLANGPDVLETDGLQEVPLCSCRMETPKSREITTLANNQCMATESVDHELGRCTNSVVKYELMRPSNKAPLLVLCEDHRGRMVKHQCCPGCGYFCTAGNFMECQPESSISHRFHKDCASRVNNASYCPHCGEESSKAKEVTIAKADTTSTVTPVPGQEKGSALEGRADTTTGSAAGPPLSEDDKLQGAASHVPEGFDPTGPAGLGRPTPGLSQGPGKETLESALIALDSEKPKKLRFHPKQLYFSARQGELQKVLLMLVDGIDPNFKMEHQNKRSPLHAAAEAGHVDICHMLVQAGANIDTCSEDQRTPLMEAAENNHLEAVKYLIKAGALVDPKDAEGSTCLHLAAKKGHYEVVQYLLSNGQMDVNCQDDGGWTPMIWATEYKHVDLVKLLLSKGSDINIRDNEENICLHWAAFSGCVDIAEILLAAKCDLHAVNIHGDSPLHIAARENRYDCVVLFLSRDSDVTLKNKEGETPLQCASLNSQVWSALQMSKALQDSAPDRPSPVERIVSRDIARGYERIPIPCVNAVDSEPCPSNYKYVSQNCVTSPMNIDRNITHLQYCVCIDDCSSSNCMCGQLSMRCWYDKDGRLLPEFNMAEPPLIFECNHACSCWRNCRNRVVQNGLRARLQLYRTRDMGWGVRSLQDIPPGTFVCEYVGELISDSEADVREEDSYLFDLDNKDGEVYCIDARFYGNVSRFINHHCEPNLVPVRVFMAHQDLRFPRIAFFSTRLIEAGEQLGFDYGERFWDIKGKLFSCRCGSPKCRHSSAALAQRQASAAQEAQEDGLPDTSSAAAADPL
Description: as §1

COc1cc2nc(-c3cc(C)oc3C)cc(NCC3CCN(c4ncc(C(=O)NO)cn4)CC3)c2cc1OC [CM-1758, 2-[4-[[[2-(2,5-dimethyl-3-furyl)-6,7-dimethoxy-4-quinolyl]amino]methyl] -1-piperidyl]pyrimidine-5-carbohydroxamic acid]
tolerability (Rag2-/-γc-/- mice; 10 mg/kg i.p. daily over 3 weeks, 1-week washout, Rag2-/-γc-/- mice): well tolerated
ALT (Counts (U/L)) (Rag2-/-γc-/- mice; Week 3): 17 U/L and 4.5 U/L and 5.5 U/L and 9 U/L
AST (Counts (U/L)) (Rag2-/-γc-/- mice; Week 3): 148.5 U/L and 43 U/L and 38.5 U/L and 74 U/L
Bilirubin (Counts (mg/dl)) (Rag2-/-γc-/- mice; Week 3): 0 mg/dl (2×) and 0.05 mg/dl (2×)
HDL (Counts (mmol/l)) (Rag2-/-γc-/- mice; Week 3): 3.2 mmol/L and 2.05 mmol/L and 0.6 mmol/L and 2.55 mmol/L
LCLC3 (Counts (mmol/l)) (Rag2-/-γc-/- mice; Week 3): 0.2 mmol/l (2×) and 0.1 mmol/l (2×)
UREA (Counts (mg/dl)) (Rag2-/-γc-/- mice; Week 3): 20.7 mg/dL and 26.4 mg/dL and 33.1 mg/dL and 24.1 mg/dL
ALT (Counts (U/L)) (Rag2-/-γc-/- mice; Week 4): 14.1 U/L and 27 U/L and 21.9 U/L and 7.5 U/L
AST (Counts (U/L)) (Rag2-/-γc-/- mice; Week 4): 46.8 U/L and 244.8 U/L and 155.7 U/L and 62.1 U/L
Bilirubin (Counts (mg/dl)) (Rag2-/-γc-/- mice; Week 4): 0 mg/dL and 0.06 mg/dL and 0.12 mg/dL and 0.03 mg/dL
HDL (Counts (mmol/l)) (Rag2-/-γc-/- mice; Week 4): 2.61 mmol/L and 2.43 mmol/L and 2.31 mmol/L and 2.37 mmol/L
LCLC3 (Counts (mmol/l)) (Rag2-/-γc-/- mice; Week 4): 0.21 mmol/l (3×) and 0.27 mmol/l
UREA (Counts (mg/dl)) (Rag2-/-γc-/- mice; Week 4): 26.61 mg/dl and 26.58 mg/dl (2×) and 31.89 mg/dl
Hematocrit (Counts (%)) (Rag2-/-γc-/- mice; 7d Washout): 51% and 54.2% and 45.9% and 52.8%
Hemoglobin (Counts (g/dl)) (Rag2-/-γc-/- mice; 7d Washout): 17.7 g/dL and 17.6 g/dL and 16.1 g/dL and 17.4 g/dL
PLT (Counts (K/O)) (Rag2-/-γc-/- mice; 7d Washout): 1572 K/O and 1571 K/O and 1050 K/O and 1405 K/O
RBC (Counts (K/O)) (Rag2-/-γc-/- mice; 7d Washout): 9.8 K/O and 10.2 K/O and 8.86 K/O and 10.25 K/O
WBC (Counts (K/O)) (Rag2-/-γc-/- mice; 7d Washout): 1.4 K/O and 1.52 K/O and 3.74 K/O and 2.44 K/O
Hematocrit (Counts (%)) (Rag2-/-γc-/- mice; Week 1): 48.1% and 47% and 47.7% and 46.6%
Hemoglobin (Counts (g/dl)) (Rag2-/-γc-/- mice; Week 1): 17.8 g/dL and 17.5 g/dL and 18 g/dL and 17.7 g/dL
PLT (Counts (K/O)) (Rag2-/-γc-/- mice; Week 1): 866 K/O and 806 K/O and 880 K/O and 983 K/O
RBC (Counts (K/O)) (Rag2-/-γc-/- mice; Week 1): 9.36 K/O and 9.79 K/O and 10.18 K/O (2×)
WBC (Counts (K/O)) (Rag2-/-γc-/- mice; Week 1): 1.68 K/O and 1.52 K/O and 1.6 K/O and 1.16 K/O
Hematocrit (Counts (%)) (Rag2-/-γc-/- mice; Week 2): 51.3% and 48.5% and 45.7% and 50.4%
Hemoglobin (Counts (g/dl)) (Rag2-/-γc-/- mice; Week 2): 18.2 g/dL and 18 g/dL and 17.2 g/dL and 17.7 g/dL
PLT (Counts (K/O)) (Rag2-/-γc-/- mice; Week 2): 1496 K/O and 1628 K/O and 1531 K/O and 1908 K/O
RBC (Counts (K/O)) (Rag2-/-γc-/- mice; Week 2): 10.07 K/O and 9.97 K/O and 9.38 K/O and 10.01 K/O
WBC (Counts (K/O)) (Rag2-/-γc-/- mice; Week 2): 10.02 K/O and 4.3 K/O and 5.26 K/O and 5.18 K/O
Hematocrit (Counts (%)) (Rag2-/-γc-/- mice; Week 3): 47.2% and 36.5% and 46.9% and 44.2%
Hemoglobin (Counts (g/dl)) (Rag2-/-γc-/- mice; Week 3): 17.4 g/dL and 13.4 g/dL and 17.3 g/dL and 16.8 g/dL
PLT (Counts (K/O)) (Rag2-/-γc-/- mice; Week 3): 870 K/O and 786 K/O and 1040 K/O and 1436 K/O
RBC (Counts (K/O)) (Rag2-/-γc-/- mice; Week 3): 9.53 K/O and 7.63 K/O and 9.68 K/O and 9.71 K/O
WBC (Counts (K/O)) (Rag2-/-γc-/- mice; Week 3): 3.3 K/O and 2.28 K/O and 4.16 K/O and 1.16 K/O
H3Ac level (western blot) [1]: significant increase in H3Ac
H3K27me3 level (western blot) [1]: no changes in H3K27me3
inhibition at 10 µM (EZH2 (Y641H)): 0%
inhibition at 10 µM (PHF8): 12%
inhibition at 10 µM (PRMT1): 0%
inhibition at 10 µM (EZH2 (Y641N)): 0%
inhibition at 10 µM (NSD1): 10%
inhibition at 10 µM (EZH2 (P132S)): 0%
inhibition at 10 µM (JMJD2B): 10%
inhibition at 10 µM (LSD1): 20%
inhibition at 10 µM (PRMT8): 0%
inhibition at 10 µM (GLP): 7%
